The record followed here is PubChem BioAssay (NCI).

SMILES strings stand for the structures. Where “and” joins values, the source holds several entries; their conditions need not be identical. Equal values may be shown once.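 Values below derive from 48-hour exposures of cells grown in 96-well plates, with endpoints linearly interpolated between the two concentrations bracketing the appropriate inhibition level. Abbreviation: GI50, concentration required for 50% inhibition of growth. TGI marks complete inhibition of growth.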

Among the test systems are A498 renal; BT-549 breast; COLO 205 colon; HCC-2998 colon; HS 578T breast; MALME-3M melanoma; RPMI-8226 leukemia; SF-539 CNS; T-47D breast; UACC-257 melanoma.
Holding throughout (assay): NCI-60 cell line screen, 48 h

For the compound `N#C/C(=C\c1ccc(Br)cc1)n1nnc2ccc(F)cc21`, the GI50 is 1700 nM in the assay with A498 renal; 671 nM with BT-549 breast; 1540 nM with COLO 205 colon; 1430 nM with HCC-2998 colon; 2710 nM in the assay on HS 578T breast; 1440 nM with MALME-3M melanoma. The GI50 in the assay with RPMI-8226 leukemia was 841 nM; in the assay on SF-539 CNS, 1260 nM; in the assay on T-47D breast it was 447 nM; with UACC-257 melanoma it was 1420 nM. Moreover, the TGI came out at 3.54 µM in the assay with A498 renal; 3.63 µM in the assay on BT-549 breast; 4 µM in the assay on COLO 205 colon; 2.89 µM in the assay on HCC-2998 colon; 20.4 µM in the assay with HS 578T breast; 4.68 µM in the assay with MALME-3M melanoma. Further, the TGI amounted to 6.96 µM in the assay with RPMI-8226 leukemia, 2.94 µM in the assay with SF-539 CNS, 6.11 µM in the assay with T-47D breast and 4.25 µM in the assay on UACC-257 melanoma.
For the compound `Cc1cnc(C(=O)NNc2nc3sc4c(c3c(=O)n2C)C(C)CCC4)cn1` (stereo not drawn), the GI50 in the assay with A498 renal is 1890 nM; with BT-549 breast it was 1030 nM; in the assay on COLO 205 colon it was 296 nM; with HCC-2998 colon it was 529 nM; in the assay with HS 578T breast, 1560 nM; with MALME-3M melanoma, 544 nM. Moreover, the GI50 in the assay with RPMI-8226 leukemia was 357 nM; with SF-539 CNS it was 396 nM; in the assay with T-47D breast, 416 nM; in the assay with UACC-257 melanoma, 353 nM. For the same compound, the TGI in the assay with A498 renal was found to be 7.8 µM; in the assay with BT-549 breast it was 14 µM; with COLO 205 colon, 1.33 µM; in the assay with HCC-2998 colon, 6.22 µM; with HS 578T breast it was 17.1 µM; with MALME-3M melanoma, 3.29 µM. Besides, the TGI was greater than 20 µM with RPMI-8226 leukemia, 2.38 µM in the assay on SF-539 CNS, 5.68 µM in the assay on T-47D breast and 4.34 µM in the assay on UACC-257 melanoma.
On to `Cc1cnc(C(=O)Nc2nc3ccc(S(=O)(=O)Nc4ccc(C5(C(F)(F)F)CC5)cc4)cc3[nH]2)cn1`, for which the GI50 was 228 nM in the assay on A498 renal; 965 nM in the assay on BT-549 breast; 414 nM with COLO 205 colon; 1130 nM in the assay with HCC-2998 colon; 367 nM with HS 578T breast; 345 nM with MALME-3M melanoma. The GI50 with RPMI-8226 leukemia was 354 nM; with SF-539 CNS, 314 nM; in the assay on T-47D breast, 596 nM; with UACC-257 melanoma, 5130 nM. Besides, the TGI was 0.882 µM in the assay on A498 renal; 12.7 µM in the assay on BT-549 breast; 9.35 µM with COLO 205 colon; 10.4 µM in the assay with HCC-2998 colon; 6.54 µM with HS 578T breast; 8.65 µM with MALME-3M melanoma. Besides, the TGI is 6.86 µM in the assay with RPMI-8226 leukemia, 3.3 µM with SF-539 CNS, 17.2 µM in the assay on T-47D breast and 29.9 µM in the assay on UACC-257 melanoma.
Regarding `CN(C)c1ccc(/C=C/c2cc[n+](C)c(/C=C/c3ccc(N(C)C)cc3)c2)cc1`, the GI50 with A498 renal was 194 nM; in the assay with BT-549 breast it was 349 nM; with COLO 205 colon it was 176 nM; with HCC-2998 colon it was 381 nM; in the assay with HS 578T breast it was 491 nM; in the assay with MALME-3M melanoma, 390 nM. For the same compound, the GI50 with RPMI-8226 leukemia was 123 nM; with SF-539 CNS it was 393 nM; in the assay with T-47D breast it was 152 nM; in the assay on UACC-257 melanoma it was 275 nM. Further, the TGI in the assay on A498 renal worked out at 1.81 µM; in the assay with BT-549 breast, 1.61 µM; in the assay on COLO 205 colon, 0.356 µM; with HCC-2998 colon it was 1.97 µM; with HS 578T breast, 16.6 µM; in the assay on MALME-3M melanoma it was 2.21 µM. Also, the TGI in the assay on RPMI-8226 leukemia worked out at 0.675 µM; in the assay with SF-539 CNS, 3.01 µM; in the assay with T-47D breast, 1.3 µM; in the assay with UACC-257 melanoma it was 0.853 µM.
Turning to `C=C1CC2(OC1=O)C(=O)Nc1ccccc12` (stereo not drawn), the GI50 was 5910 nM in the assay with A498 renal; 4240 nM in the assay with BT-549 breast; 885 nM with COLO 205 colon; 9350 nM in the assay on HCC-2998 colon; 11000 nM with HS 578T breast; 1240 nM with MALME-3M melanoma. The GI50 in the assay with RPMI-8226 leukemia is 1800 nM; in the assay on SF-539 CNS it was 1880 nM; in the assay with T-47D breast, 1130 nM; in the assay on UACC-257 melanoma it was 1740 nM. In addition, the TGI with A498 renal turned out to be 19.4 µM; in the assay with BT-549 breast, 17.1 µM; with COLO 205 colon it was 2.41 µM; in the assay on HCC-2998 colon it was 23.2 µM; with HS 578T breast, 56.6 µM; in the assay on MALME-3M melanoma, 2.64 µM. In addition, the TGI with RPMI-8226 leukemia was determined as 5.94 µM; in the assay on SF-539 CNS, 3.81 µM; with T-47D breast, 2.92 µM; in the assay on UACC-257 melanoma, 4.24 µM.
For `CO/N=C(\C)CCC#Cc1ccccc1C(=O)OC`, the TGI in the assay with A498 renal, in the assay on BT-549 breast, in the assay with COLO 205 colon, in the assay with HCC-2998 colon, in the assay on HS 578T breast and with MALME-3M melanoma was greater than 10 µM each time. The TGI with RPMI-8226 leukemia, in the assay with SF-539 CNS, in the assay with T-47D breast and with UACC-257 melanoma was greater than 10 µM throughout.
`O=C(O)C1CC(O)CN1` (stereo not drawn): the TGI in the assay on A498 renal, with BT-549 breast, with COLO 205 colon, with HCC-2998 colon, with HS 578T breast and in the assay with MALME-3M melanoma was greater than 100 µM in each case. Also, the TGI with RPMI-8226 leukemia, in the assay with SF-539 CNS, with T-47D breast and with UACC-257 melanoma was greater than 100 µM each time.
Turning to `Cc1cn(-c2cc(NC(=O)c3ccc(C)c(Nc4nccc(-c5cccnc5)n4)c3)cc(C(F)(F)F)c2)cn1`, the GI50 is > 10000 nM and 4090 nM in the assay on A498 renal; 5380 nM and 3570 nM with BT-549 breast; 1580 nM and 1230 nM with COLO 205 colon; 5730 nM and 2520 nM in the assay on HS 578T breast; 1690 nM and 780 nM in the assay on MALME-3M melanoma; 2290 nM and 2250 nM in the assay with RPMI-8226 leukemia. The GI50 was > 10000 nM and 15400 nM in the assay with SF-539 CNS; > 10000 nM and 6710 nM with T-47D breast; 4460 nM and 2490 nM in the assay with UACC-257 melanoma. The TGI in the assay with A498 renal was > 10 µM and 12.1 µM; with BT-549 breast it was > 10 µM and 10 µM; in the assay on COLO 205 colon, 7.11 µM and 5.52 µM; in the assay with HCC-2998 colon, greater than 65 µM; in the assay on HS 578T breast, > 10 µM and 6.8 µM; in the assay on MALME-3M melanoma, 5.04 µM and 4.1 µM. In addition, the TGI is greater than 100 µM in the assay with RPMI-8226 leukemia; > 10 µM and 31.9 µM with SF-539 CNS; > 10 µM and 32.3 µM in the assay on T-47D breast; > 10 µM and 7.97 µM with UACC-257 melanoma.
As to `CSc1nc(SC)c2c(CO)c(Br)n(Cc3ccccc3)c2n1`, the TGI is 14.5 µM in the assay on A498 renal; 62.4 µM in the assay on BT-549 breast; greater than 100 µM with COLO 205 colon; greater than 100 µM with HCC-2998 colon; 58.9 µM in the assay on HS 578T breast; greater than 100 µM with MALME-3M melanoma. In addition, the TGI with RPMI-8226 leukemia was greater than 100 µM; with SF-539 CNS, 29.1 µM; in the assay on T-47D breast, 74.2 µM.
